The source of these data is patent US10308643B2, “Heterocyclic compound” (Takeda Pharmaceutical Company Limited, priority 2015, dated 2019).

Common to all, as to format: biochemical
For one assay, the target named is T1, HDAC6 enzyme (Homo sapiens, UniProt Q9UBN7).
T1 construct: transducing full length HDAC1 and HDAC6 genes into Sf-9 insect cells; GST; purchased SignalChem; host or cells: Sf-9 insect cells
T1 sequence (Q9UBN7 1-1215): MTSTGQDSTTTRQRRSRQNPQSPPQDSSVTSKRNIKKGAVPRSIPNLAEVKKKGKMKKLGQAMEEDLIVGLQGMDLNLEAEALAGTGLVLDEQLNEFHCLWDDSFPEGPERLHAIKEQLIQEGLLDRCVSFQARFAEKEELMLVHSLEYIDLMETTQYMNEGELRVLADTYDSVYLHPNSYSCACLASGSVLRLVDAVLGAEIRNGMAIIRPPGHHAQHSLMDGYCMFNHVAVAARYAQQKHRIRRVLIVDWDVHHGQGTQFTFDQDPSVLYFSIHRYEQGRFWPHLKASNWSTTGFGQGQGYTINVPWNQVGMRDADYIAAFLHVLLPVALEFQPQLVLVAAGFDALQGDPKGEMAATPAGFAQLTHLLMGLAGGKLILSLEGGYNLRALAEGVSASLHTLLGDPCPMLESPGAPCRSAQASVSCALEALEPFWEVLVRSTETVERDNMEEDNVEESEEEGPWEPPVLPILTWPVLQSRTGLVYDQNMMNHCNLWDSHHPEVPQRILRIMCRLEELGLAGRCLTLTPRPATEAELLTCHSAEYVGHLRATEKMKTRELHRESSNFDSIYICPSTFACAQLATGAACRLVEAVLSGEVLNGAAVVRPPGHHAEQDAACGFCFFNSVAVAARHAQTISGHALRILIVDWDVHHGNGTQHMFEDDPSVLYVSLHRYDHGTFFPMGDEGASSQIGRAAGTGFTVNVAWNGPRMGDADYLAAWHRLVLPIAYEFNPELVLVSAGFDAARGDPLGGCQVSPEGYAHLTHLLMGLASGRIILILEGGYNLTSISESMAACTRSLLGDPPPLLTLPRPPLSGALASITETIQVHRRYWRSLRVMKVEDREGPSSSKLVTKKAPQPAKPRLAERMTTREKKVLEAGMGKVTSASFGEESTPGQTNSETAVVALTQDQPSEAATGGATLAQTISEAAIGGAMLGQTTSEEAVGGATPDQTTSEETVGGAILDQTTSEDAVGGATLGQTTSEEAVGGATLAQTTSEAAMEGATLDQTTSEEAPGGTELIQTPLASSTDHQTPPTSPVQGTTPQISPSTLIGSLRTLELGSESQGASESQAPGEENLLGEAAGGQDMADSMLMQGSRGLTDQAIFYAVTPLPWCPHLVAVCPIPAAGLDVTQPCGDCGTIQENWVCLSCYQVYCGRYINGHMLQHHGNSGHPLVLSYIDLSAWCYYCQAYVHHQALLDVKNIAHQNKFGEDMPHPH
As to the kind of experiment: HDAC1/6 Enzyme Inhibitory Assay (HDAC-Glo I/II Assay kit), HDAC6. Conditions: 1 μM test compound; wells without enzyme = 100% inhibition; read-out: HDAC6 inhibitory rate (%) (1 μM). Summed up:
(§1)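 Full-length human HDAC1 or HDAC6, expressed in Sf-9 cells and GST-purified, was preincubated with compound for 60 min at room temperature in Tris-HCl pH 7.5 buffer with MgCl2, KCl, NaCl, glutathione and Tween-20. HDAC-Glo substrate-developer was then added, and luminescence was read after 20 min. Inhibition was referenced to no-enzyme wells as 100%.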

In a further assay the target is T2, HDAC1 enzyme (Homo sapiens, UniProt Q13547).
T2 construct: transducing full length HDAC1 and HDAC6 genes into Sf-9 insect cells; GST; purchased SignalChem; host or cells: Sf-9 insect cells
The assay is described as follows: HDAC1/6 Enzyme Inhibitory Assay (HDAC-Glo I/II Assay kit), HDAC1. As to conditions: 1 μM test compound; wells without enzyme = 100% inhibition; read-out: HDAC1 inhibitory rate (%) (1 μM). Summed up:
as §1

The next assay deals with T3, HDAC9 enzyme (Homo sapiens, UniProt Q9UKV0).
T3 construct: transducing full length HDAC9 gene into Sf-9 insect cells; made in house; host or cells: Sf-9 insect cells
The assay is described as follows: HDAC9 Enzyme Inhibitory Assay (HDAC-Glo class IIa). As to conditions: 1 μM test compound; wells without enzyme = 100% inhibition; read-out: HDAC9 inhibitory rate (%) (1 μM). Summed up: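 Full-length human HDAC9 from Sf-9 cells, Ni-NTA purified, preincubated with compound for 60 min at room temperature in Tris-HCl pH 7.5 buffer (MgCl2, KCl, NaCl, glutathione, Tween-20). HDAC-Glo class IIa substrate-developer added; luminescence read after 20 min, with no-enzyme wells defining 100% inhibition.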

Structures can show the parent of a compound that is named as a salt.

T3 sequence (Q9UKV0 whole entry, species assumed): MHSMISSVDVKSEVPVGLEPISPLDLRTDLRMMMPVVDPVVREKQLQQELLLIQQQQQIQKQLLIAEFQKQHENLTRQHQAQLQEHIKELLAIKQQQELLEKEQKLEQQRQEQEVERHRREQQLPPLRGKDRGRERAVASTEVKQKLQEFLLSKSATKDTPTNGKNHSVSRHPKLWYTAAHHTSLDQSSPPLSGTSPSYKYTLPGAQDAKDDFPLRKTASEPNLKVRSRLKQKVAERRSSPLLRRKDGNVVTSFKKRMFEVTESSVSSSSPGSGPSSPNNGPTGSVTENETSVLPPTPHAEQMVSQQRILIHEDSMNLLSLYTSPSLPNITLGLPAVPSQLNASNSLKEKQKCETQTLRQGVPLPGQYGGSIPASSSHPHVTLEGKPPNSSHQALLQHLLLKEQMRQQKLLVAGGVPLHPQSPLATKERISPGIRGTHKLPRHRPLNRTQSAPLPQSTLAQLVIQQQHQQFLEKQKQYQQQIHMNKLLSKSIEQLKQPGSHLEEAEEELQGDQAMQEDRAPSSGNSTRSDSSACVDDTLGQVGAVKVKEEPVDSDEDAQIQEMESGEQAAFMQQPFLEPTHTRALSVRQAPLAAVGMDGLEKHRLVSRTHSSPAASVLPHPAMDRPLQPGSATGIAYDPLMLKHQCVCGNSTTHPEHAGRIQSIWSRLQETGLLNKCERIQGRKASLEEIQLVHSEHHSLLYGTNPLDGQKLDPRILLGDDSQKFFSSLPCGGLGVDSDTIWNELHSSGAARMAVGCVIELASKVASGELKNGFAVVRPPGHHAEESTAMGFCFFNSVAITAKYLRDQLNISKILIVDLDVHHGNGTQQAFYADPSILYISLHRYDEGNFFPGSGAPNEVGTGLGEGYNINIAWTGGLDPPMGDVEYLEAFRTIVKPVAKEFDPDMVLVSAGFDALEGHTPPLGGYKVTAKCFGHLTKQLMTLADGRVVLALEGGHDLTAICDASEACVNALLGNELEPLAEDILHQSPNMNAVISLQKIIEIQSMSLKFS
T2 sequence (Q13547 whole entry): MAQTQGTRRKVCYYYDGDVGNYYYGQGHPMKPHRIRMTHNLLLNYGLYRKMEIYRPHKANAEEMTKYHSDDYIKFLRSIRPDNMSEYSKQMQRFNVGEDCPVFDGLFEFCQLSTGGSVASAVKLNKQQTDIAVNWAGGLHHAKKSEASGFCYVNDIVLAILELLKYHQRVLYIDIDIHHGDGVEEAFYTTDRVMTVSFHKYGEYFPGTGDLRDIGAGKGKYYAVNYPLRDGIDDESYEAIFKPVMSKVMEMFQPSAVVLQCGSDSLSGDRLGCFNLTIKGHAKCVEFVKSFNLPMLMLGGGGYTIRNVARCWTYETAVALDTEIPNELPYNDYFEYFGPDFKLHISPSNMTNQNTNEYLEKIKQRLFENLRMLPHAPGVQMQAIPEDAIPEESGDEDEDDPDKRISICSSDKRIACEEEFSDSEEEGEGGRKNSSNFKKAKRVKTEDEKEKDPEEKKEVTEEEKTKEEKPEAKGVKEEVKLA

As to `CC(C)(C)OC(=O)N[C@@H]1CCCC[C@H]1N1Cc2ccc(-c3noc(C(F)(F)F)n3)cc2C1=O` (relative stereo) [Example 6, tert-butyl trans-(2-(1-oxo-6-(5-(trifluoromethyl)-1,2,4-oxadiazol-3-yl)-1,3-dihydro-2H-isoindol-2-yl)cyclohexyl)carbamate], the inhibition at 1 µM is 95% on HDAC6 enzyme, 9% on HDAC1 enzyme and 65% on HDAC9 enzyme.

`Cn1cnc(C(=O)N[C@@H]2CCCC[C@H]2N2Cc3ccc(-c4noc(C(F)(F)F)n4)cc3C2=O)c1` [Example 101, 1-methyl-N-((1R,2R)-2-(1-oxo-6-(5-(trifluoromethyl)-1,2,4-oxadiazol-3-yl)-1,3-dihydro-2H-isoindol-2-yl)cyclohexyl)-1H-imidazole-4-carboxamide]: the inhibition at 1 µM was 98% on HDAC6 enzyme, 12% at HDAC1 enzyme and 68% on HDAC9 enzyme.

Turning to `O=C(CC1(O)CCCC1)N[C@@H]1CCCC[C@H]1N1Cc2ccc(-c3noc(C(F)(F)F)n3)cc2C1=O` [Example 91, 2-(1-hydroxycyclopentyl)-N-((1R,2R)-2-(1-oxo-6-(5-(trifluoromethyl)-1,2,4-oxadiazol-3-yl)-1,3-dihydro-2H-isoindol-2-yl)cyclohexyl)acetamide], the inhibition at 1 µM on HDAC6 enzyme is 99%; at HDAC1 enzyme it was 11%; at HDAC9 enzyme, 44%.

Take `O=C1CCCN1[C@@H]1COCC[C@H]1N1Cc2ccc(-c3noc(C(F)(F)F)n3)cc2C1=O` [Example 177, 2-((3S,4R)-3-(2-oxopyrrolidin-1-yl)tetrahydro-2H-pyran-4-yl)-6-(5-(trifluoromethyl)-1,2,4-oxadiazol-3-yl)isoindolin-1-one]: the inhibition at 1 µM on HDAC6 enzyme was determined as 98%; on HDAC1 enzyme it was 8%; on HDAC9 enzyme, 64%.

On to `O=C(N[C@@H]1CCCC[C@H]1N1Cc2ccc(-c3noc(C(F)(F)F)n3)cc2C1=O)N1CC2(COC2)C1` [Example 161, N-((1R,2R)-2-(1-oxo-6-(5-(trifluoromethyl)-1,2,4-oxadiazol-3-yl)-1,3-dihydro-2H-isoindol-2-yl)cyclohexyl)-2-oxa-6-azaspiro[3.3]heptane-6-carboxamide], for which the inhibition at 1 µM came out at 76% at HDAC6 enzyme, 1% on HDAC1 enzyme and 20% on HDAC9 enzyme.

On to `CC(=O)N1CC(N2Cc3ncc(-c4noc(C(F)(F)F)n4)cc3C2=O)C1` [Example 75, 6-(1-acetylazetidin-3-yl)-3-(5-(trifluoromethyl)-1,2,4-oxadiazol-3-yl)-6,7-dihydro-5H-pyrrolo[3,4-b]pyridin-5-one], for which the figures for the inhibition at 1 µM at HDAC6 enzyme, on HDAC1 enzyme and at HDAC9 enzyme were 87%, 11% and 79%, respectively.

Regarding `O=C1c2cc(-c3noc(C(F)(F)F)n3)ccc2CN1[C@@H]1CCNC[C@H]1c1ccccc1` [Example 15, 2-((3R,4R)-3-phenylpiperidin-4-yl)-6-(5-(trifluoromethyl)-1,2,4-oxadiazol-3-yl)isoindolin-1-one], the inhibition at 1 µM stood at 98% on HDAC6 enzyme, 97% at HDAC1 enzyme and 99% at HDAC9 enzyme.

With `O=C1NCC(C(=O)N[C@@H]2CCCC[C@H]2N2Cc3ccc(-c4noc(C(F)(F)F)n4)cc3C2=O)N1` (stereo partly drawn) [Example 109, 2-oxo-N-((1R,2R)-2-(1-oxo-6-(5-(trifluoromethyl)-1,2,4-oxadiazol-3-yl)-1,3-dihydro-2H-isoindol-2-yl)cyclohexyl)imidazolidine-4-carboxamide], the inhibition at 1 µM at HDAC6 enzyme was 71%; at HDAC1 enzyme, -2%; on HDAC9 enzyme it was 19%.

For `CC(=O)N1CC[C@@H](N2Cc3cc(-c4noc(C(F)(F)F)n4)ccc3C2=O)[C@H](c2ccccc2)C1` (relative stereo) [Example 137, trans-2-(1-acetyl-3-phenylpiperidin-4-yl)-5-(5-(trifluoromethyl)-1,2,4-oxadiazol-3-yl)isoindolin-1-one], the figures for the inhibition at 1 µM on HDAC6 enzyme, at HDAC1 enzyme and at HDAC9 enzyme were 89%, 25% and 94%, respectively.

Take `O=C(N[C@H]1COCC[C@@H]1N1Cc2ccc(-c3noc(C(F)(F)F)n3)cc2C1=O)[C@H]1CC1(F)F` [Example 221, (1R)-2,2-difluoro-N-((3R,4S)-4-(1-oxo-6-(5-(trifluoromethyl)-1,2,4-oxadiazol-3-yl)-1,3-dihydro-2H-isoindol-2-yl)tetrahydro-2H-pyran-3-yl)cyclopropanecarboxamide]: the results for the inhibition at 1 µM at HDAC6 enzyme, on HDAC1 enzyme and on HDAC9 enzyme were 90%, 34% and 86%, respectively.

For `O=C1c2cc(-c3noc(C(F)(F)F)n3)ccc2CN1C1CCNC[C@@H]1c1ccccc1` (stereo partly drawn) [Example 22, 2-((3S,4R)-3-phenyipiperidin-4-yl)-6-(5-(trifluoromethyl)-1,2,4-oxadiazol-3-yl)isoindolin-1-one, hydrochloride], the inhibition at 1 µM came out at 100% on HDAC6 enzyme, 85% at HDAC1 enzyme and 96% at HDAC9 enzyme.

With `N[C@H]1CCC[C@@H]1N1Cc2ccc(-c3noc(C(F)(F)F)n3)cc2C1=O` [Example 143, 2-((1S,2S)-2-aminocyclopentyl)-6-(5-(trifluoromethyl)-1,2,4-oxadiazol-3-yl)isoindolin-1-one], the inhibition at 1 µM on HDAC6 enzyme was -4%; on HDAC1 enzyme, -1%; on HDAC9 enzyme it was 52%.

As to `CC(C)(C)OC(=O)N1CC[C@H](N2Cc3ccc(-c4noc(C(F)(F)F)n4)cc3C2=O)[C@@H](c2ccccc2)C1` [Example 30, tert-butyl (3S,4S)-4-(1-oxo-6-(5-(trifluoromethyl)-1,2,4-oxadiazol-3-yl)-1,3-dihydro-2H-isoindol-2-yl)-3-phenylpiperidine-1-carboxylate], the inhibition at 1 µM on HDAC6 enzyme came to 97%; on HDAC1 enzyme, 30%; at HDAC9 enzyme it was 84%.

Take `O=C1c2cc(-c3noc(C(F)(F)F)n3)ccc2CN1C1CCNC[C@@H]1c1ccc(Cl)cc1` (stereo in doubt) [Example 51, 2-(trans-3-(4-chlorophenyl)piperidin-4-yl)-6-(5-(trifluoromethyl)-1,2,4-oxadiazol-3-yl)isoindolin-1-one]: the inhibition at 1 µM on HDAC6 enzyme is 98%; at HDAC1 enzyme it was 94%; on HDAC9 enzyme it was 99%.

As to `O=C1c2cc(-c3noc(C(F)(F)F)n3)ccc2CN1[C@@H]1CCNC[C@H]1c1ccc(Cl)c(F)c1` (relative stereo) [Example 52, 2-(trans-3-(4-chloro-3-fluorophenyl)piperidin-4-yl)-6-(5-(trifluoromethyl)-1,2,4-oxadiazol-3-yl)isoindolin-1-one], the inhibition at 1 µM came to 97% at HDAC6 enzyme, 97% at HDAC1 enzyme and 99% on HDAC9 enzyme.

Take `O=C(Cn1c(=O)oc2ccccc21)N1CCC(N2Cc3ccc(-c4noc(C(F)(F)F)n4)cc3C2=O)CC1` [Example 65, 3-(2-oxo-2-(4-(1-oxo-6-(5-(trifluoromethyl)-1,2,4-oxadiazol-3-yl)-1,3-dihydro-2H-isoindol-2-yl)piperidin-1-yl)ethyl)-1,3-benzoxazol-2(3H)-one]: the figures for the inhibition at 1 µM at HDAC6 enzyme, on HDAC1 enzyme and on HDAC9 enzyme were 89%, 7% and 73%, respectively.
